Data taken from ChEMBL document CHEMBL3875216, “Synthesis of antimicrobial glucosamides as bacterial quorum sensing mechanism inhibitors” (Bioorg Med Chem, 2017).

What was measured:
Escherichia coli [1] = experiment: Inhibition of LuxR-dependent quorum sensing activity in Escherichia coli MT102 harboring pJBA132 assessed as inhibition of OHHL-induced GFP expression at 2 mM measured after 8 hrs by fluorescence assay relative to control
Escherichia coli [2] = experiment: Inhibition of LuxR-dependent quorum sensing activity in Escherichia coli MT102 harboring pJBA132 assessed as inhibition of OHHL-induced GFP expression at 2 mM measured after 24 hrs by fluorescence assay relative to control
Escherichia coli [3] = experiment: Growth inhibition of Escherichia coli MT102 at 1 mM after 8 hrs relative to control; settings: MT102, 8 h, read-out: GI
Pseudomonas aeruginosa [4] = experiment: Growth inhibition of Pseudomonas aeruginosa MH602 at 500 uM after 24 hrs relative to control; settings: MH602, 24 h, read-out: GI
Pseudomonas aeruginosa [5] = experiment: Inhibition of LasR-dependent quorum sensing activity in Pseudomonas aeruginosa MH602 harboring GFP-fused […] LasB promoter assessed as inhibition of 3-oxo-dodecanoyl HSL-induced GFP expression at 2 mM measured after 24 hrs by fluorescence assay relative to control
Pseudomonas aeruginosa [6] = experiment: Growth inhibition of Pseudomonas aeruginosa MH602 at 1 mM after 8 hrs relative to control; settings: MH602, 8 h, read-out: GI
Escherichia coli [7] = experiment: Inhibition of LuxR-dependent quorum sensing activity in Escherichia coli MT102 harboring pJBA132 assessed as inhibition of OHHL-induced GFP expression at 500 uM measured after 24 hrs by fluorescence assay relative to control
Escherichia coli [8] = experiment: Growth inhibition of Escherichia coli MT102 at 500 uM after 24 hrs relative to control; settings: MT102, 24 h, read-out: GI
Pseudomonas aeruginosa [9] = experiment: Growth inhibition of Pseudomonas aeruginosa MH602 at 2 mM after 8 hrs relative to control; settings: MH602, 8 h, read-out: GI
Escherichia coli [10] = experiment: Inhibition of LuxR-dependent quorum sensing activity in Escherichia coli MT102 harboring pJBA132 assessed as inhibition of OHHL-induced GFP expression at 500 uM measured after 8 hrs by fluorescence assay relative to control
Escherichia coli [11] = experiment: Growth inhibition of Escherichia coli MT102 at 1 mM after 24 hrs relative to control; settings: MT102, 24 h, read-out: GI
Escherichia coli [12] = experiment: Growth inhibition of Escherichia coli MT102 at 2 mM after 8 hrs relative to control; settings: MT102, 8 h, read-out: GI
Escherichia coli [13] = experiment: Growth inhibition of Escherichia coli MT102 at 2 mM after 24 hrs relative to control; settings: MT102, 24 h, read-out: GI
Pseudomonas aeruginosa [14] = experiment: Growth inhibition of Pseudomonas aeruginosa PA14 at 2 mM after 24 hrs relative to control; settings: 2000 µM
Pseudomonas aeruginosa [15] = experiment: Inhibition of LasR-dependent quorum sensing activity in Pseudomonas aeruginosa MH602 harboring GFP-fused […] LasB promoter assessed as inhibition of 3-oxo-dodecanoyl HSL-induced GFP expression at 500 uM measured after 8 hrs by fluorescence assay relative to control
Pseudomonas aeruginosa [16] = experiment: Growth inhibition of Pseudomonas aeruginosa MH602 at 2 mM after 24 hrs relative to control; settings: MH602, 24 h, read-out: GI
Pseudomonas aeruginosa [17] = experiment: Inhibition of LasR-dependent quorum sensing activity in Pseudomonas aeruginosa MH602 harboring GFP-fused […] LasB promoter assessed as inhibition of 3-oxo-dodecanoyl HSL-induced GFP expression at 500 uM measured after 24 hrs by fluorescence assay relative to control
Pseudomonas aeruginosa [18] = experiment: Growth inhibition of Pseudomonas aeruginosa MH602 at 1 mM after 24 hrs relative to control; settings: MH602, 24 h, read-out: GI
Escherichia coli [19] = experiment: Inhibition of LuxR-dependent quorum sensing activity in Escherichia coli MT102 harboring pJBA132 assessed as inhibition of OHHL-induced GFP expression at 1 mM measured after 8 hrs by fluorescence assay relative to control
Pseudomonas aeruginosa [20] = experiment: Inhibition of LasR-dependent quorum sensing activity in Pseudomonas aeruginosa MH602 harboring GFP-fused […] LasB promoter assessed as inhibition of 3-oxo-dodecanoyl HSL-induced GFP expression at 1 mM measured after 24 hrs by fluorescence assay relative to control
[21] = test system: Pseudomonas aeruginosa PA14; experiment: Inhibition of quorum sensing-regulated pyocyanin production in Pseudomonas aeruginosa PA14 at 2 mM after 24 hrs relative to control
Escherichia coli [22] = experiment: Growth inhibition of Escherichia coli MT102 at 500 uM after 8 hrs relative to control; settings: MT102, 8 h, read-out: GI
Pseudomonas aeruginosa [23] = experiment: Growth inhibition of Pseudomonas aeruginosa MH602 at 500 uM after 8 hrs relative to control; settings: MH602, 8 h, read-out: GI
[24] = test system: Pseudomonas aeruginosa PA14; experiment: Inhibition of quorum sensing-regulated biofilm formation in Pseudomonas aeruginosa PA14 at 2 mM after overnight incubation by crystal violet staining based assay relative to control
Escherichia coli [25] = experiment: Inhibition of LuxR-dependent quorum sensing activity in Escherichia coli MT102 harboring pJBA132 assessed as inhibition of OHHL-induced GFP expression at 1 mM measured after 24 hrs by fluorescence assay relative to control
Pseudomonas aeruginosa [26] = experiment: Inhibition of LasR-dependent quorum sensing activity in Pseudomonas aeruginosa MH602 harboring GFP-fused […] LasB promoter assessed as inhibition of 3-oxo-dodecanoyl HSL-induced GFP expression at 1 mM measured after 8 hrs by fluorescence assay relative to control
Pseudomonas aeruginosa [27] = experiment: Inhibition of LasR-dependent quorum sensing activity in Pseudomonas aeruginosa MH602 harboring GFP-fused […] LasB promoter assessed as inhibition of 3-oxo-dodecanoyl HSL-induced GFP expression at 2 mM measured after 8 hrs by fluorescence assay relative to control

Row | Structure (SMILES) | inhibition (Escherichia coli [1]) [%] | inhibition (Escherichia coli [2]) [%] | inhibition at 1000 µM (Escherichia coli [3]) [%] | inhibition at 500 µM (Pseudomonas aeruginosa [4]) [%] | inhibition (Pseudomonas aeruginosa [5]) [%] | inhibition at 1000 µM (Pseudomonas aeruginosa [6]) [%] | inhibition (Escherichia coli [7]) [%] | inhibition at 500 µM (Escherichia coli [8]) [%] | inhibition at 2000 µM (Pseudomonas aeruginosa [9]) [%] | inhibition (Escherichia coli [10]) [%] | inhibition at 1000 µM (Escherichia coli [11]) [%] | inhibition at 2000 µM (Escherichia coli [12]) [%] | inhibition at 2000 µM (Escherichia coli [13]) [%] | growth inhibition (GI) (Pseudomonas aeruginosa [14]) | inhibition (Pseudomonas aeruginosa [15]) [%] | inhibition at 2000 µM (Pseudomonas aeruginosa [16]) [%] | inhibition (Pseudomonas aeruginosa [17]) [%] | inhibition at 1000 µM (Pseudomonas aeruginosa [18]) [%] | inhibition (Escherichia coli [19]) [%] | inhibition (Pseudomonas aeruginosa [20]) [%] | also measured
1 | CC(=O)OC[C@H]1O[C@@H](OC(C)=O)[C@H](NC(=O)Cc2ccc(Cl)cc2)[C@@H](OC(C)=O)[C@@H]1OC(C)=O | 3.7 | 16.5 | 0 | 3.4 | 16.7 | 0 | 1.3 | 0 | 0 | 5.2 | 0 | 0 | 0 | Non-Toxic | 1.4 | 0 | 13.3 | 0 | 4.2 | 14.8 | inhibition [21]: 9.3%; inhibition at 500 µM (Escherichia coli [22]): 0%; inhibition at 500 µM (Pseudomonas aeruginosa [23]): 0%; inhibition [24]: 17.8%; inhibition (Escherichia coli [25]): 8.5%
2 | CC(=O)OC[C@H]1O[C@@H](OC(C)=O)[C@H](NC(=O)Cc2ccc(Br)cc2)[C@@H](OC(C)=O)[C@@H]1OC(C)=O | 8.1 | 71.2 | 0 | 0 | 13.1 | 0 | 8.5 | 0 | 0 | 8.4 | 0 | 0 | 0 | Non-Toxic | 4.4 | 0 | 11.2 | 0 | 5.1 | 10 | inhibition (Pseudomonas aeruginosa [26]): 6.8%; inhibition (Pseudomonas aeruginosa [27]): 3.2%; inhibition [21]: 0.8%; inhibition at 500 µM (Escherichia coli [22]): 0%; inhibition at 500 µM (Pseudomonas aeruginosa [23]): 0%; inhibition [24]: 26.2%; inhibition (Escherichia coli [25]): 36.1%
